# Measured values taken from patent US20080312184A1 (priority 2005, published 2008).
# Experiments:
# brown patch pathogen = assay: Control Test on Brown Patch of Turf Grass; type: in vivo, grass (cultivar: Pentocross); conditions: Table 6, single active ingredient, soaked into soil, kept for 20 days
# Excerpt: Then, the area ratio of brown patch pathogen-attacked portion to the whole surface of the pot was examined according to the same index as in Test Example 1.
# [1] = system: alternaria leaf spot pathogen of apples; assay: Control Test on Alternaria Leaf Spot of Apples; type: in vivo, apples (cultivar: ourin); conditions: Table 5, single active ingredient, examined after 20 days
# Excerpt: After a liquid chemical was dried, 10 trees attacked by alternaria leaf spot pathogen of apples which were previously arranged to be diseased were placed on the windward side and apples of test pots placed on the leeward side by wind of an air conditioner were wind-inoculated.
smiles,measurement,setting,value
"C[Si](C)(C)CC(O)(Cn1cncn1)c1ccc(F)cc1 (centres unmarked) [Simeconazole, simeconazole]",Control Value,brown patch pathogen; treated concentration 10 ppm,48
"Clc1ccc(CSC(Cn2cncn2)=Nc2ccc(Cl)cc2Cl)cc1 [Imibenconazole, imibenconazole]",Control Value,[1]; treated concentration 10 ppm,42
"CC1=C(C(=O)Nc2ccccc2)S(=O)(=O)CCO1 [Oxycarboxin, oxycarboxin]",Control Value,brown patch pathogen; treated concentration 20 ppm,42
"CCCCCCCCCCCCNC(=N)N [Dodine, dodine]",Control Value,[1]; treated concentration 50 ppm,44
"CC(C)CC(C)c1sccc1NC(=O)c1cn(C)nc1C(F)(F)F (racemic) [P (penthiopyrad), (RS)—N-[2-(1,3-dimethylbutyl)thiophen-3-yl]-1-methyl-3-tri fluoromethyl-1H-pyrazole-4-carboxamide]",Control Value,brown patch pathogen; treated concentration 10 ppm,53
same,Control Value,[1]; treated concentration 10 ppm,50
"O=C1C(Cl)=C(Cl)C(=O)N1c1ccc(F)cc1 [Fluoroimide, fluoroimide]",Control Value,[1]; treated concentration 30 ppm,45
"CC1(C)COC(C)(CCCc2ccc(Cl)cc2)N1C(=O)n1ccnc1.CC1(C)COC(C)(CCCc2ccc(Cl)cc2)N1C(=O)n1ccnc1.O=C(O)/C=C/C(=O)O (centres unmarked) [Oxpoconazole fumarate, oxpoconazole fumarate]",Control Value,[1]; treated concentration 10 ppm,46
